Legend:
[1] = test system: S. aureus ATCC 13709 Novobiocin resistant mutant (bone infection); test: Prophylactic efficacy in rat model of S. aureus bone infection; format: in vivo; settings: for Prophylactic effect (in words): rat bone infection, doses and times of Table 3, t-test p<0.05; for Measured bacterial titer: rat tibia 24 h postinfection
[2] = Levels of compound 9 in rat tibiae (microbiological assay); format: in vivo; settings: for Amount of compound 9 in the uninfected tibiae: dose equivalent to 10 mg/kg of 9 (11: 15.5 mg/kg), three days prior to infection
Procedure: The experimentally obtained intact uninfected (contra lateral) tibia of the treated and infected rats described above was ground to a powder which was suspended in PBS+2% DMSO. The mixture was centrifuged for 2 min at 13,000 rpm. The amount of compound 9 released in the supernatant was determined by microbiological assay as described previously (Example 3).

[3] = single dose 11 mg/kg parent drug equivalent, 3 days prior to infection

| Molecule | Prophylactic effect (in words) [1] | Measured bacterial titer [1, 3] | Amount of compound 9 in the uninfected tibiae [2] [µg/g] | further results |
| --- | --- | --- | --- | --- |
| 3-(((4-(2-(3-((bisphosphonomethyl)carbamoyl)propanoyloxy)ethyl)-1-piperazinyl)imino)methyl)rifamycin [Compound 11] | statistically significant | 3.01 ± 0.47 Log CFU/g of bone | 0.88 ± 0.11 | Level of compound 9 in uninfected tibia ([2]; 11 at 32 mg/kg once weekly for 4 weeks after the infection): 1.28±0.18 μg/g of bone |
| CO[C@H]1/C=C/O[C@@]2(C)Oc3c(C)c(O)c4c(O)c(c(/C=N/N5CCN(CCO)CC5)c(O)c4c3C2=O)NC(=O)/C(C)=C\C=C\[C@H](C)[C@H](O)[C@@H](C)[C@@H](O)[C@@H](C)[C@H](OC(C)=O)[C@@H]1C [Compound 9, 3-(((4-(2-hydroxyethyl)-1-piperazinyl)imino)methyl)rifamycin] |  | 6.38 ± 0.90 Log CFU/g of bone | < 0.17 |  |
| CO[C@H]1/C=C/O[C@@]2(C)Oc3c(C)c(O)c4c(=O)c(c5oc6cc(N7CCN(CCOC(=O)CCC(=O)NC(P(=O)(O)O)P(=O)(O)O)CC7)cc(O)c6nc-5c4c3C2=O)NC(=O)/C(C)=C\C=C\[C@H](C)[C@H](O)[C@@H](C)[C@@H](O)[C@@H](C)[C@H](OC(C)=O)[C@@H]1C.N.N [Compound 62] | statistically significant |  |  | Measured bacterial titer ([1]; single dose 20 mg/kg parent drug equivalent, 2 days prior to infection): 1.98 ± 0.06 Log CFU/g of bone |
| CO[C@H]1/C=C/O[C@@]2(C)Oc3c(C)c(O)c4c(=O)c(c5oc6cc(N7CCN(CCC(=O)c8ccc(OCCCC(P(=O)(O)O)P(=O)(O)O)cc8)CC7)cc(O)c6nc-5c4c3C2=O)NC(=O)/C(C)=C\C=C\[C@H](C)[C@H](O)[C@@H](C)[C@@H](O)[C@@H](C)[C@H](OC(C)=O)[C@@H]1C [Compound 71] | statistically significant |  |  | Measured bacterial titer ([1]; single dose 20 mg/kg parent drug equivalent, 3 days prior to infection): 2.77 ± 1.00 Log CFU/g of bone |
| CO[C@H]1/C=C/O[C@@]2(C)Oc3c(C)c(O)c4c(=O)c(c5oc6cc(N7CCN(CC(C)C)CC7)cc(O)c6nc-5c4c3C2=O)NC(=O)/C(C)=C\C=C\[C@H](C)[C@H](OC(=O)CCCOC(=O)CCC(=O)NC(P(=O)(O)O)P(=O)(O)O)[C@@H](C)[C@@H](O)[C@@H](C)[C@H](OC(C)=O)[C@@H]1C [Compound 81, 21-O-(4-((3-(bisphosphonomethyl)carbamoyl)propanoyloxy)butanoyl)-1′,4-Didehydro-1-deoxy-1,4-dihydro-3′-hydroxy-5′-[4-(2-methylpropyl)-1-piperazinyl]-1-oxorifamycin VIII] | statistically significant |  |  | Measured bacterial titer ([1]; single dose 10 mg/kg parent drug equivalent, 3 days prior to infection): 2.05 ± 0.06 Log CFU/g of bone |
